Results as given in patent US4962119A, “Triazole derivatives of fenamates as antiinflammatory agents” (Warner-Lambert Company, priority 1989, dated 1990).

Test system: 5-Lipoxygenase
Assay: ARBL whole cell 5-lipoxygenase assay (inhibition of LTB4 formation in RBL-1 cells, RIA)
Assay type: cell-based, rat
Settings: calcium ionophore A23187 (5 μM)
Text: ARBL/ARBC Whole Cell 5-Lipoxygenase and Cyclcoxygenase Assays
Cells are harvested by centrifugation.

FC(F)(F)c1cccc(Nc2ccccc2-c2n[nH]c(=S)[nH]2)c1 [Example 4, 5-[2-[(3-trifluoromethylphenyl)amino]phenyl]-2,4-dihydro-3H-1,2,4-triazole-3-thione]
ARBL: % inhibition of LTB4 at 16 μM: N (Less than 40% inhibiton)
